Molecular target: T1, serotonin 5-HT3A receptor (Homo sapiens, UniProt P46098)
T1 sequence (P46098 24-478): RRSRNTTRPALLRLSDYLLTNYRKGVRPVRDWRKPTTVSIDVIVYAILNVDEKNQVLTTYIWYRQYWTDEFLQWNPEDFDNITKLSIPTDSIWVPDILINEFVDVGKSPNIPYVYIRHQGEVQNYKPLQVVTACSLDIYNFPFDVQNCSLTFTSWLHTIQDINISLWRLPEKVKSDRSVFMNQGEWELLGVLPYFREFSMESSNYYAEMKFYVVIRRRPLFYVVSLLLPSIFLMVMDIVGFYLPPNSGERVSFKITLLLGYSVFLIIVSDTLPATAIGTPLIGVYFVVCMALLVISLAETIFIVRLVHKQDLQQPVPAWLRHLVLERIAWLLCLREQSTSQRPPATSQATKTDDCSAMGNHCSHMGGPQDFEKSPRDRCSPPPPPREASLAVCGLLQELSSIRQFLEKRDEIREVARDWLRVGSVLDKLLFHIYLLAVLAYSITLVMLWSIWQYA
Assay: Assay for 5-HT3A receptor: two-electrode voltage clamp in Xenopus oocytes, inhibition of 5-HT-induced inward current
Format: cell-based
Conditions: 5-HT3A receptor expressed in Xenopus laevis oocytes; for nH (Hill coefficient) / inhibition: from concentration-response curves; for inhibition / IC50: inward current induced by 5-HT (1 μM); for inhibition: read-out: Vmax (maximum inhibition value); for IC50: test concentrations 0.003-100 μM, read-out: IC50 (50% inhibitory concentration)

Row | nH (Hill coefficient) | inhibition | IC50 | SMILES
1 | 1.3 ± 0.3 | 107 ± 8.5% | 2700 ± 600 nM | COc1cccc(Cn2c(=O)[nH]c3cc(C(=O)NCCN4CCCCC4)ccc3c2=O)c1 [Compound 8, 3-(3-Methoxybenzyl)-2,4-dioxo-1,2,3,4-tetrahydro-quinazoline-7-carboxylic acid (2-piperidine-1-yl-ethyl)-amide]
2 |  | 96 ± 3.9% |  | O=C(NCCN1CCCCC1)c1ccc2c(=O)n(Cc3ccccc3Cl)c(=O)[nH]c2c1 [Compound 13, (2-Chloro-benzyl)-2,4-dioxo-1,2,3,4-tetrahydro-quinazoline-7-carboxylic acid (2-piperidine-1-yl-ethyl)-amide]
3 | 1.3 ± 0.1 | 104 ± 3.6% | 2200 ± 200 nM | CCCn1c(=O)[nH]c2cc(C(=O)NCCN3CCCCC3)ccc2c1=O [Compound 11, 2,4-Dioxo-3-propyl-1,2,3,4-tetrahydro-quinazoline-7-carboxylic acid (2-piperidine-1-yl-ethyl)-amide]
4 | 1.1 ± 0.1 | 98.8 ± 4.2% | 2000 ± 300 nM | O=C(NCCN1CCCCC1)c1ccc2c(=O)n(C3CCCCC3)c(=O)[nH]c2c1 [Compound 10, 3-Cyclohexyl-2,4-dioxo-1,2,3,4-tetrahydro-quinazoline-7-carboxylic acid (2-piperidine-1-yl-ethyl)-amide]
5 | 1.1 ± 0.2 | 103 ± 5.1% | 1400 ± 200 nM | COc1ccccc1Cn1c(=O)[nH]c2cc(C(=O)NCCN3CCCCC3)ccc2c1=O [Compound 7, 3-(2-Methoxy-benzyl)-2,4-dioxo-1,2,3,4-tetrahydro-quinazoline-7-carboxylic acid (2-piperidine-1-yl-ethyl)-amide]
6 | 5.3 ± 1.5 | 52.5 ± 0.6% | 1300 ± 100 nM | O=C(NCCCN1CCOCC1)c1ccc2c(=O)n(Cc3ccc(Cl)cc3)c(=O)[nH]c2c1 [Compound 16, 3-(4-Chloro-benzyl)-2,4-dioxo-1,2,3,4-tetrahydro-quinazoline-7-carboxylic acid (3-morpholine-4-yl-propyl)-amide]
7 | 1.2 ± 0.2 | 106 ± 2.5% | 3300 ± 500 nM | O=C(NCCN1CCCCC1)c1ccc2c(=O)n(Cc3ccc(Cl)cc3)c(=O)[nH]c2c1 [Compound 14, 3-(4-Chloro-benzyl)-2,4-dioxo-1,2,3,4-tetrahydro-quinazoline-7-carboxylic acid (2-piperidine-1-yl-ethyl)-amide]
8 | 1.5 ± 0.2 | 98.2 ± 4.5% | 5700 ± 600 nM | O=C(NCCCN1CCCCC1)c1ccc2c(=O)n(Cc3ccc(Cl)cc3)c(=O)[nH]c2c1 [Compound 19, 3-(4-Chloro-benzyl)-2,4-dioxo-1,2,3,4-tetrahydro-quinazoline-7-carboxylic acid (3-piperidine-1-yl-propyl)-amide]
9 | 1.2 ± 0.1 | 104 ± 2.5% | 2800 ± 200 nM | CC1CCCCN1CCNC(=O)c1ccc2c(=O)n(Cc3ccc(Cl)cc3)c(=O)[nH]c2c1 (centres unmarked) [Compound 15, 3-(4-Chloro-benzyl)-2,4-dioxo-1,2,3,4-tetrahydro-quinazoline-7-carboxylic acid (2-(2-methylpiperidine-1-yl)ethyl)-amide]
10 | 1.7 ± 0.2 | 96.4 ± 2.9% | 800 ± 100 nM | COc1ccc(Cn2c(=O)[nH]c3cc(C(=O)NCCN4CCCCC4)ccc3c2=O)cc1 [Compound 9, 3-(4-Methoxybenzyl)-2,4-dioxo-1,2,3,4-tetrahydro-quinazoline-7-carboxylic acid (2-piperidine-1-yl-ethyl)-amide]
11 | 1.0 ± 0.2 | 108 ± 11.5% | 2400 ± 800 nM | O=C(NCCN1CCCCC1)c1ccc2c(=O)n(Cc3cccc(F)c3)c(=O)[nH]c2c1 [Compound 5, 3-(3-Fluoro-benzyl)-2,4-dioxo-1,2,3,4-tetrahydro-quinazoline-7-carboxylic acid (2-piperidine-1-yl-ethyl)-amide]
12 | 0.9 ± 0.1 | 108 ± 6% | 1900 ± 400 nM | O=C(NCCN1CCCCC1)c1ccc2c(=O)n(-c3ccc(F)cc3)c(=O)[nH]c2c1 [Compound 2, 3-(4-Fluoro-phenyl)-2,4-dioxo-1,2,3,4-tetrahydro-quinazoline-7-carboxylic acid (2-piperidine-1-yl-ethyl)-amide]
13 | 1.4 ± 0.1 | 99.5 ± 1.6% | 4800 ± 200 nM | CCC1CCCCN1CCCNC(=O)c1ccc2c(=O)n(Cc3ccc(Cl)cc3)c(=O)[nH]c2c1 (centres unmarked) [Compound 18, 3-(4-Chloro-benzyl)-2,4-dioxo-1,2,3,4-tetrahydro-quinazoline-7-carboxylic acid [3-(2-ethyl-piperidine-1-yl)-propyl]-amide]
14 | 1.4 ± 0.1 | 103 ± 3.3% | 2200 ± 200 nM | Cn1c(=O)[nH]c2cc(C(=O)NCCN3CCCCC3)ccc2c1=O [Compound 12, 3-Methyl-2,4-dioxo-1,2,3,4-tetrahydro-quinazoline-7-carboxylic acid (2-piperidine-1-yl-ethyl)-amide]
15 | 0.9 ± 0.1 | 103 ± 12.8% | 7500 ± 2500 nM | O=C(NCCN1CCCC1)c1ccc2c(=O)n(Cc3ccc(Cl)cc3)c(=O)[nH]c2c1 [Compound 1, 3-(4-Chloro-benzyl)-2,4-dioxo-1,2,3,4-tetrahydro-quinazoline-7-carboxylic acid (2-pyrrolidine-1-yl-ethyl)-amide]
16 | 1.4 ± 0.4 | 100 ± 9.6% | 2100 ± 600 nM | O=C(NCCN1CCCCC1)c1ccc2c(=O)n(Cc3ccccc3F)c(=O)[nH]c2c1 [Compound 4, 3-(2-Fluoro-benzyl)-2,4-dioxo-1,2,3,4-tetrahydro-quinazoline-7-carboxylic acid (2-piperidine-1-yl-ethyl)-amide]
17 | 1.0 ± 0.2 | 105 ± 7.5% | 1900 ± 400 nM | O=C(NCCN1CCCCC1)c1ccc2c(=O)n(Cc3ccc(F)cc3)c(=O)[nH]c2c1 [Compound 6, 3-(4-Fluoro-benzyl)-2,4-dioxo-1,2,3,4-tetrahydro-quinazoline-7-carboxylic acid (2-piperidine-1-yl-ethyl)-amide]
18 | 1.4 ± 0.2 | 101 ± 3.6% | 1600 ± 200 nM | COc1ccc(-n2c(=O)[nH]c3cc(C(=O)NCCN4CCCCC4)ccc3c2=O)cc1 [Compound 3, 3-(4-Methoxy-phenyl)-2,4-dioxo-1,2,3,4-tetrahydro-quinazoline-7-carboxylic acid (2-piperidine-1-yl-ethyl)-amide]

Row | SMILES | nH (Hill coefficient) | inhibition | IC50
19 | CN1[C@@H]2CC[C@H]1C[C@@H](OC(=O)c1cc(Cl)cc(Cl)c1)C2 [MDL72222, reference compound] | 1.25 ± 0.2 |  | 

— US8748422B2, “Pharmaceutical compositions containing quinazoline derivatives for treating as serotonin receptor antagonist” (Korea Institute of Science and Technology, priority 2007, dated 2014)
